The source of these data is ChEMBL document CHEMBL5042504 (J Med Chem, 2022).

The target in data set [1] is Histone deacetylase 3 (Homo sapiens, UniProt O15379). Put plainly: Inhibition of human recombinant HDAC3 using Boc-Lys(acetyl)-AMC substrate incubated for 2 hrs by fluorescence based assay.
The nature of data set [2]: Drug distribution in BALB/c mouse liver measured at 4 mg/kg, po or ip after 2 to 8 hrs after 0.5 hrs. The class given is ADME, organism-based. The settings on record: in vivo, time 2-8 hrs.
Data set [3] relates to MV4-11. Briefly: Antitumor activity against human MV4-11 cells xenografted in balb/c mouse assessed as accumulation of AcHH3 protein level at 4 mg/kg, po measured after 2 hrs. The class given is functional, organism-based. (In xenograft studies the graft and the host belong to different species.)
Data set [4] is described as follows: Drug distribution in BALB/c mouse brain measured at 4 mg/kg, po or ip after 2 to 8 hrs after 0.5 hrs. The settings on record: in vivo, time 2-8 hrs. It counts as ADME, organism-based.
The nature of data set [5]: Drug distribution in BALB/c mouse lung measured at 4 mg/kg, po or ip after 2 to 8 hrs after 0.5 hrs. The class given is ADME, organism-based. As to conditions: in vivo, time 2-8 hrs.
For data set [6], the target named is T1, Histone deacetylase 7 (Homo sapiens, UniProt Q8WUI4).
T1 sequence (Q8WUI4 whole entry): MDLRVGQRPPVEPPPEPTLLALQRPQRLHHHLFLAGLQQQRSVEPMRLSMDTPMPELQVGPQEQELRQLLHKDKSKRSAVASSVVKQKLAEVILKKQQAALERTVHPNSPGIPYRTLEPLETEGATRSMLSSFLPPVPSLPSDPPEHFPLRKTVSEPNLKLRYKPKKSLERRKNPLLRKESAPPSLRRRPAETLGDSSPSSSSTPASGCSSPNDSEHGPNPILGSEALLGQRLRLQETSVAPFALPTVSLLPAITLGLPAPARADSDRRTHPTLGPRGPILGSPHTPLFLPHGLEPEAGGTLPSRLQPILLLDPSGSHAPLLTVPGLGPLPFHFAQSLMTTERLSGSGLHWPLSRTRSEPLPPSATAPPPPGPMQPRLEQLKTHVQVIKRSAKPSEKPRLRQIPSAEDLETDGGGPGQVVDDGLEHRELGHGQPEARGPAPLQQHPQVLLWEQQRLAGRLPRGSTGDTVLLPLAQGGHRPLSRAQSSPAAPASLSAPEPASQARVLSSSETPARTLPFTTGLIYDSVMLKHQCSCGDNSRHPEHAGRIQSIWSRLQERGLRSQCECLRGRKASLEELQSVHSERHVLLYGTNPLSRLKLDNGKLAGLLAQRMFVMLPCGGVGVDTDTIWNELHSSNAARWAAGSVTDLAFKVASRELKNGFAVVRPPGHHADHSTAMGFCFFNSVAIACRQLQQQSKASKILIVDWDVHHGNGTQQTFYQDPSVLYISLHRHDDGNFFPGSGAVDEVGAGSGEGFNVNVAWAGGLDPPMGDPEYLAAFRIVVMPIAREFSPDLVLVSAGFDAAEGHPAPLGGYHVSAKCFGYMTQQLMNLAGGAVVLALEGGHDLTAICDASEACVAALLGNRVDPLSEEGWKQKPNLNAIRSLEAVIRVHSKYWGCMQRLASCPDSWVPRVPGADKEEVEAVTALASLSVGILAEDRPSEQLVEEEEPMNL
Put plainly: Inhibition of human recombinant HDAC7 using Boc-Lys(triflouroacetyI)-AMC substrate incubated for 2 hrs by fluorescence based assay.

For data set [7], the target named is T2, Histone deacetylase 8 (Homo sapiens, UniProt Q9BY41).
T2 sequence (Q9BY41 whole entry): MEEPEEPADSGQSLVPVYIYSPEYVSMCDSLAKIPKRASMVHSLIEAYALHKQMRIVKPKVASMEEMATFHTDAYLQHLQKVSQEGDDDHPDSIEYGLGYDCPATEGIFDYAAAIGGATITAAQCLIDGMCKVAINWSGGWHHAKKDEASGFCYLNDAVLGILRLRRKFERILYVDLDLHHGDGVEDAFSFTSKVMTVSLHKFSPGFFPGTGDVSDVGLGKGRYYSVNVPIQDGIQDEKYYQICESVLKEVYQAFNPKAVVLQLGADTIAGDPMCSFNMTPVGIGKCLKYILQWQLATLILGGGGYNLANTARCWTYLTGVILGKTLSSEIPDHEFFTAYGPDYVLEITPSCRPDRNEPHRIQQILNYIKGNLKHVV
Briefly: Inhibition of human recombinant HDAC8 using Boc-Lys(triflouroacetyI)-AMC substrate incubated for 2 hrs by fluorescence based assay.

The nature of data set [8]: Drug distribution in BALB/c mouse liver measured at 4 mg/kg, po or ip after 0.5 hrs after 0.5 hrs. It counts as ADME, organism-based. The settings on record: in vivo.
A short description of data set [9]: Oral bioavailability in CD-1 mouse at 20 mg/kg measured upto 24 hrs. The class given is ADME, organism-based. The settings on record: in vivo.
Data set [10] can be described thus: Toxicity in BALB/c mouse assessed as induction of pathological changes in spleen by H and E staining based analysis. As to conditions: in vivo. It counts as tissue-based.
Data set [11] can be described thus: Half life in CD-1 mouse at 5 mg/kg, iv measured upto 24 hrs. The class given is ADME, organism-based. As to conditions: in vivo.
Data set [12] in a line: AUC (0 to infinity) in CD-1 mouse at 5 mg/kg, iv measured upto 24 hrs. The class given is ADME, organism-based. More on the design: route intravenous, dose 5 mg/kg, time <=24. The settings on record: in vivo.
Data set [13] deals with MV4-11. Put plainly: Down regulation of p21 expression in human MV4-11 cells at 200 nM measured after 24 hrs by Western blot analysis. It counts as functional, cell-based.
Data set [14] can be described thus: Drug distribution in tumor of BALB/c mouse xenografted with human MV4-11 cells assessed as measured after 0.5 hrs. As to conditions: read-out: Ct. The class given is ADME.
For data set [15], the system named is MV4-11. Put plainly: Induction of apoptosis in human wt-p53 MV4-11 cells assessed as apoptotic cells at 500 nM measured after 24 hrs by FITC Annexin V/propidium iodide staining based flow cytometry (reference value: 9.14%). The class given is functional. In general terms: Flow cytometry measures light scatter and fluorescence of single cells or particles in a stream.

Data set [16] in a line: Toxicity in BALB/c mouse xenografted with MV4-11 cells assessed as body weight loss.
Data set [17] in a line: Drug distribution in BALB/c mouse spleen measured at 4 mg/kg, po or ip after 2 to 8 hrs after 0.5 hrs. The class given is ADME, organism-based. The settings on record: in vivo, time 2-8 hrs.
Data set [18] is described as follows: Plasma concentration in BALB/c mouse xenografted with human AML MV4-11 cells at 4 mg/kg, po. It counts as ADME, organism-based. The settings on record: in vivo.
Data set [19] deals with MV4-11. Put plainly: Up regulation of acetylated histoneH4 ine expression in human MV4-11 cells at 200 nM measured after 24 hrs by Western blot analysis. The class given is functional, cell-based. Background: A western blot detects proteins with antibodies after separation by electrophoresis.
A short description of data set [20]: Plasma concentration in BALB/c mouse xenografted with human AML MV4-11 cells at 4 mg/kg, ip. It counts as ADME, organism-based. The settings on record: in vivo.
Data set [21] in a line: Drug distribution in BALB/c mouse gut measured at 4 mg/kg, po or ip after 2 to 8 hrs after 0.5 hrs. The class given is ADME, organism-based. The settings on record: in vivo, time 2-8 hrs.
Data set [22] can be described thus: Drug distribution in BALB/c mouse heart measured at 4 mg/kg, po or ip after 0.5 hrs after 0.5 hrs. It counts as ADME, organism-based. As to conditions: in vivo.
The subject of data set [23] is MV4-11. Briefly: Cell cycle arrest in human […] MV4-11 cells assessed as accumulation at G2/M-phase at 500 nM measured after 24 hrs realtive to control. The class given is functional, cell-based.
The subject of data set [24] is HL-60. Briefly: Cell cycle arrest in human […] HL60 cells assessed as accumulation at G2/M-phase at 200 nM measured after 24 hrs realtive to control. The class given is functional, cell-based.
The test system of data set [25] is MV4-11. Put plainly: Cell cycle arrest in human wt-p53 MV4-11 cells assessed as accumulation at G2/M-phase at 200 nM measured after 24 hrs realtive to control. The class given is functional, cell-based.
Data set [26] concerns HL-60. Put plainly: Cell cycle arrest in human […] HL60 cells assessed as accumulation at G2/M-phase at 500 nM measured after 24 hrs realtive to control. It counts as functional, cell-based.

pIC50: −log10 of the molar value. Activity calls are given as the source filed them. No cut-off for these calls is given here.

Histone deacetylase 3, sequence (O15379 whole entry): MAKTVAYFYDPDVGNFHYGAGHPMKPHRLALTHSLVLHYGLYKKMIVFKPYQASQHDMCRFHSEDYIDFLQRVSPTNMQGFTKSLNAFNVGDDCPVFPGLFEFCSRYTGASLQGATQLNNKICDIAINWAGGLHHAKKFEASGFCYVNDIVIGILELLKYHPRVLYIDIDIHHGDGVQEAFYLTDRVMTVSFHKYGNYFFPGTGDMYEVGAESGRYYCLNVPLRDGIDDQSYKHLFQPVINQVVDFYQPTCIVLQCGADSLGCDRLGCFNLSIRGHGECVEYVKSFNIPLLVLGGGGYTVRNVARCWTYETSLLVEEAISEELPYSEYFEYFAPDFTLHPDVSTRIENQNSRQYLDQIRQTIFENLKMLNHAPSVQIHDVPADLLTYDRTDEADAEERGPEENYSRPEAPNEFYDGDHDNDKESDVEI

Consider `CCCNNC(=O)c1ccc(CNC(=O)c2cc3ccccc3[nH]2)cc1`, for which the pIC50 in [1] is 9.36; in [6], less than 5.30; in data set [7], less than 5.30. For the same compound, the Drug uptake entry in data set [2], in data set [4], in data set [5], in [8], in data set [17] and in data set [18] was “Active” each time. Moreover, the Drug uptake entry in data set [20], in data set [21] and in data set [22] was “Active” throughout. In addition, the result in data set [3], in data set [13], in data set [19], in data set [23], in data set [24] and in data set [25] was Active. Besides, in data set [26], the outcome was Active. For the same compound, the F in data set [9] is on record as 112%. The values for the Activity result in data set [10], in [15] and in [16] were “Non-Toxic”, 88.1% and “Non-Toxic”, respectively. Further, the half-life in [11] was 6.75 h. Besides, the AUC in [12] came to 32179 ng·h/mL. Also, the concentration at 0.5 h in data set [14] stood at 1130 ng/g.
Regarding `CCCNNC(=O)c1ccc(CNC(=O)/C=C/c2ccccc2)cc1`, the pIC50 in data set [6] and in [7] was less than 5.30 each time. In addition, in data set [19], the result was Active.

In general, pIC50 refers to the negative decadic logarithm of the IC50, by convention in mol/L. In general, half-life refers to how long it takes for the measured level to halve. A low value points to rapid decline. By AUC is commonly meant concentration integrated over time. Read a low AUC as less exposure.
